# Test results reported in patent US9504676B2, “Molecules inhibiting a metabolic pathway involving the Syk protein tyrosine kinase and method for identifying said molecules” (CENTRE NATIONAL DE LA RECHERCHE SCIENTIFIQUE, priority 2008, dated 2016).
# Legend:
# [1] = Observation of toxicity after administration to animals; assay type: in vivo, BALB/c mice
# Excerpt: The pharmaceutical molecule screening approach described herein represents a generic platform wherein the initial use of antibodies makes it possible to detect the domains of the target molecule having a therapeutic potential, thus facilitating the design of chemical molecules (via in silico and/or in vitro screening) capable acting as functional antibody mimics and as potential protein-protein interaction inhibitors.
# Finally, to extend these observations to mast cell functions in vivo, the inventors tested the effects of C-13 on passive systemic (PSA) and cutaneous anaphylaxis (PCA) induced in BALB/c mice by administering DNP-specific IgE molecules followed by intravenous stimulation with DNP-KLH hapten. […] The intensity of systemic anaphylaxis was determined by measuring both the drop in body temperature and the increase in vascular permeability following antigen administration.
# ERK1/2 = assay: MAP kinase activation: ERK1/2 phosphorylation level; assay type: cell-based; conditions: high C-13 concentration
# Protocol: The association of SLP-76 with Vav and/or Nck plays a role in optimal MAP kinase activation in mast cells^27.
# (§1) • 1) Chemical products and antibodies. A chemical bank of 3000 molecules (a varied subset) was acquired from ChemBridge, Inc. (San Diego, Calif.). Stocks of solutions of small molecules were prepared at a rate of 10 mM in DMSO (dimethylsulphoxide), except for C-13 (methyl 2-{5-[(3-benzyl-4-oxo-2-thioxo-1,3-thiazolidin-5-ylidene)methyl]-2-furyl}benzoate, ChemBridge ID No. 6197026) prepared in DMF (dimethylformamide). Unless specified otherwise, all the reagents were supplied by Sigma. Dinitrophenyl (DNP) hapten was acquired from Calbiochem. Sepharose GammaBind G and all the secondary antibodies were supplied by GE Health Amersham Biosciences. […] The binding of G4G11 with Syk was assessed by adding the 9E10 monoclonal antibody conjugated with HRP detecting the amino acid sequence EQKLISEEDLN of human c-myc protein located at the C-terminal end of the scFv fragment. To generate Syk mutants, targeted mutagenesis was used on GST:Syk 6-242 protein and the binding of G4G11 with the mutants was assessed in the presence of 5 μM of C-13. • 3) Cells, culture conditions and functional tests. […] The level of β-hexosaminidase released was measured 10 min later and the TNF-α titration was performed by means of a cytotoxicity test on L929 cells as described previously^10, 3 hours after stimulation. […]
# Akt = assay: Phosphorylation of Akt (PI3K activity marker, Fyn-dependent cascade); assay type: cell-based; conditions: RBL-2H3 cells and BMMCs
# Protocol: In mast cells, the signalling cascade Fyn/Gab2/PI3K gives rise to the activation of PI3K and the generation of PI-3,4,5-P3 recruiting a number of proteins containing a pleckstrin homology domain (PH), including Btk and PLC-γ on the plasma membrane^19.
# as §1, with “Sigma.” for “Sigma. Dinitrophenyl (DNP) hapten was acquired from Calbiochem. Sepharose GammaBind G and all the secondary antibodies were supplied by GE Health Amersham Biosciences.”
# BALB/c mice = assay: Peritonitis: Syk-dependent peritoneal neutrophil recruitment; assay type: in vivo; conditions: single oral administration of 100 mg/kg, Bordetella pertussis toxin
smiles,measurement,setting,value
"COC(=O)c1ccccc1-c1ccc(/C=C2/SC(=S)N(Cc3ccccc3)C2=O)o1 [Molecule C-13, methyl 2-{5-[(3-benzyl-4-oxo-2-thioxo-1,3-thiazolidin-5-ylidene)methyl]-2-furyl}benzoate]",signs of toxicity in the animals,"[1]; after oral administration, prior to antigen stimulation",no obvious sign of toxicity
same,apparent toxic effect,"[1]; oral or local administration, one hour to 12 days",lack of an apparent toxic effect
same,phosphorylation level ERK1/2,ERK1/2,reduces
same,Fyn-dependent cascade (phosphorylation of Akt),Akt,did not affect
same,Syk-dependent neutrophil recruitment induced by thioglycollate in the peritoneal cavity,BALB/c mice,did not affect
